Source: PMC9145393, “Design, Semisynthesis, and Estrogenic Activity of Lignan Derivatives from Natural Dibenzylbutyrolactones” (Pharmaceuticals, 2022)
Where “and” joins values, the source holds several entries; their conditions need not be identical. Identical values can stand only once. Like-named read-outs stand apart in the source and are kept apart here.

Columns and labels:
[1] = system: ER-dependent transcriptional activity in T47D-KBluc cells; assay: ERE-luciferase reporter in T47D-KBluc cells, agonist assessment (absence of E2); assay type: cell-based, human; design: Emax: dose or concentration left out as unconfirmed; conditions: for Emax: Homo sapiens, read-out: E/Emax (%) VEH; for E/Emax (%) VEH: lignans 5 μM, absence of E2 (VEH), relative to Emax induced by 0.1 nM E2, Mean ± SEM
Procedure: (§1) Lactols (5) and (6) were tested as a mixture of the two epimers obtained.
(§2) Chemical screening was carried out by using T47D-KBluc cells, an ER+ BC cell line that is stably transfected with the pGL2.TATA.Inr.Luc.neo containing three ER-responsive elements (ERE). The T47D-KBluc cells were maintained in standard growth media as detailed above. Dosing media was further modified by reduction of DCC-FBS to 5%. […] Chemical screening was also carried out by using the triple negative BC cell line MDA-kb2 cells that stably expresses pMMTV.neo.luc gene, an AR- and GR-responsive reporter gene. […] The T47D-KBluc cells or the MDA-kb2 cells were seeded at 100,000 cells per well in 24-well plates (Nunclon, Sigma-Aldrich, Darmstadt, Germany ) and allowed to attach overnight. Then, the media was replaced with 1 mL/well of dosing media and test compounds incubated 24 h. Then, the cells were harvested in 100 µL passive lysis buffer (Promega, Madison, WI, USA) per well. The relative light units (RLUs), which correspond to luciferase activity from each sample, were measured by using Luciferase Assay Reagent (Promega) in a Clarity luminescence microplate reader (BIOTEK, Winooski, VT, USA). The RLUs from each sample were normalized by protein concentration and converted to fold induction with respect to vehicle-treated control. […] Then, the percent of efficacy (E) of each tested compound, as compared with Emax, was calculated. […] Data are expressed as mean ± SEM of triplicate independent experiments, where each treatment was assayed in triplicate. […] Duplicate plates were dosed in parallel to control the effects of compounds on cell viability. The protein concentration was measured in cell lysate using colorimetric assay reagent (BioRad, CA, USA).

T47D cells = assay: MTT cell viability, E2-depleted T47D cells; assay type: cell-based, human; conditions: 10 μM, 24 h, absence of E2
Procedure: The effects of lignan derivatives were evaluated on human ER+ BC cells.
Cells were maintained in RPMI (Lonza, Basel, Switzerland) growth media, without phenol red, supplemented with 10% fetal bovine serum (FBS) (Lonza), 2 mM glutamine, 10 mM HEPES, 1 mM sodium pyruvate, 100 UI/mL penicillin and 100 μg/mL streptomycin. Cells were growth in a humidified incubator with 5% CO2 at 37 °C.
The cells were maintained in standard growth media as detailed above and seeded at exponential growth density (6000 cells per well) in 96-well plates (BD Falcon, France). The cells were then treated with vehicle or tests compounds (from 0.01 μM to 10 μM) for 24–72 h. The mitochondrial metabolization of the tetrazolium salt 3-(4,5-methyltiazol-2yl-)-2,5diphenyl-tetrazolium bromide] (MTT) (Applichen, Darmstadt, Germany) was used as an indicator of cell viability.
Figure 6 Effects of lignans on ER+ breast cancer cell viability. […] Then, the mitochondrial metabolization of MTT was used as an indicator of cell viability, as described in the Material and Methods. Data are expressed as mean ± SEM for at least three independent experiments, where each concentration is tested in triplicate. * p < 0.05, ** p < 0.01, and *** p < 0.001 versus VEH-treated cells.

rhERα-LBD = target: T1, rhERα-LBD (Homo sapiens, UniProt P03372); assay: LanthaScreen TR-FRET competitive binding assay; conditions: 10-point competition curves, Mean ± SE
T1 sequence (P03372 311-547 limits assumed): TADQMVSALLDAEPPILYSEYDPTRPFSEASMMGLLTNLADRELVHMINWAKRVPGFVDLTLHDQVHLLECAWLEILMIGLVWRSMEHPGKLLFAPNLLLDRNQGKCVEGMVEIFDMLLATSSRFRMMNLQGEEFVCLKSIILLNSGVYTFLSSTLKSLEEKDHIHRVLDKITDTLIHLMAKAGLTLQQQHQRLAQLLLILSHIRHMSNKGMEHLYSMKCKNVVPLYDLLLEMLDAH
Procedure: Next, the binding of lignan derivatives to the LBD of rhERα was analyzed by using time-resolved fluorescence resonance energy transfer (TR-FRET) competitive binding assay. […] The LanthaScreen^TM TR-FRET Nuclear Receptor (NR) binding assay (SelectScreen^TM Profiling Service, Life Technologies, Carlsbad, CA, USA) was used for screening of potential binding of lignan derivatives to human ERα [33]. Briefly, the kit uses the recombinant human ERα (rhERα) protein and a tight binding, selective fluorescent ligand, Fluormone^TM tracer. […] The rhERα protein and the tracer form rhERα/tracer complex, resulting in a high FP value. […] Dose-response competition curves were fitted by nonlinear regression analyses in the GraphPad software 8 (GraphPad Software, San Diego, CA, USA) to obtain IC50 values.
Data are expressed as mean ± SEM for from at least three independent experiments, where each concentration is tested in triplicate.

[2] = system: E2-induced ERE-luciferase activity in T47D-KBluc cells; assay: ERE-luciferase reporter in T47D-KBluc cells, antagonist assessment (presence of 0.1 nM E2); assay type: cell-based; conditions: Homo sapiens
Procedure: as §1
as §2, with “Then, the media was replaced with 1 mL/well of dosing media and test compounds incubated 24 h.” left out

[3] = read-out: IC50 (inhibition of Fluormone tracer binding to rhERα)
[4] = read-out: IC50 (reduction of E2-induced Emax), lignans 1 μM to 10 μM, 1 h before 0.1 nM E2 for 18 h, predicted by nonlinear regression, Mean ± SE

Structure (SMILES)	Emax [1]	reduction of cell viability (T47D cells)	E/Emax (%) VEH [1]	IC50 (rhERα-LBD; [3])	further results
COc1ccc(C[C@H]2COC(O)[C@@H]2Cc2ccc(OC)c(OC)c2)cc1OC (mixture of isomers) [Compound 6, (3R,4R)-3,4-Bis(3,4-dimethoxybenzyl)tetrahydrofuran-2-ol]	5.86 ± 0.84%	16.6%	–	–	–
COc1ccc(C[C@H]2COC[C@@H]2Cc2ccc3c(c2)OCO3)cc1OC [Compound 9]	23.8 ± 6.34%	55.6%	weak estrogenic activity	8 µM and 7.65 µM	–
COc1ccc(C[C@H]2C(=O)OC[C@@H]2Cc2ccc3c(c2)OCO3)cc1OC [Compound 1, (−)-Bursehernin]	17.6 ± 5.4%	reduced cell viability	–	–	IC50 ([2]; lignans 1 μM to 10 μM, 1 h before 0.1 nM E2 for 18 h, predicted by nonlinear regression, Mean ± SE, read-out: IC50 (reduction of E2-induced Emax)): < 20 µM; IC50 (rhERα-LBD; IC50 (inhibition of Fluormone tracer binding to rhERα)): 0.39 ± 0.19 µM
O=C1OC[C@H](Cc2ccc(O)c(O)c2)[C@H]1Cc1ccc(O)c(O)c1 [Compound 3, (3R,4R)-3,4-Bis(3,4-dihydroxybenzyl)dihydrofuran-2(3H)-one]	24.5 ± 6.53%	–	weak estrogenic activity	0.6 ± 0.11 µM	–
CC/C(=C(\c1ccc(O)cc1)c1ccc(OCCN(C)C)cc1)c1ccccc1 [Compound 4-OHTAM, 4-hydroxytamoxifen, reference compound]	–	–	–	–	IC50 ([2]; read-out: IC50 (abolition of E2 effect by coincubation), antiestrogen coincubated with E2): 0.38 ± 0.009 µM
C[C@]12CC[C@@H]3c4ccc(O)cc4CC[C@H]3[C@@H]1CC[C@@H]2O [Compound E2, 17β-estradiol, reference compound]	100 ± 11.3%	–	–	–	–
COc1ccc(C[C@@H](COS(C)(=O)=O)[C@H](COS(C)(=O)=O)Cc2ccc3c(c2)OCO3)cc1OC [Compound 12, (2R,3R)-2-(Benzo[d][1,3]dioxol-5-ylmethyl)-3-(3,4-dimethoxybenzyl)butane-1,4-diyl Dimethanesulfonate]	22.2 ± 3.89%	reduced cell viability	weak estrogenic activity	–	–
COc1ccc(C[C@@H](CO)[C@H](CO)Cc2ccc3c(c2)OCO3)cc1OC [Compound 7, (2R,3R)-2-(Benzo[d][1,3]dioxol-5-ylmethyl)-3-(3,4-dimethoxybenzyl)butane-1,4-diol]	13.1 ± 2.58%	–	–	4 ± 1.6 µM	–
COc1ccc(C[C@@H](C)[C@H](C)Cc2ccc3c(c2)OCO3)cc1OC [Compound 13, 5-((2R,3R)-4-(3,4-Dimethoxyphenyl)-2,3-dimethylbutyl)benzo[d][1,3]dioxole]	16.7 ± 3.37%	reduced cell viability	–	5.02 ± 1.54 µM	–
O=C1OC[C@@H]2Cc3cc(O)c(O)cc3-c3cc(O)c(O)cc3C[C@@H]12 [Compound 16, (3aR,13aR)-6,7,10,11-Tetrahydroxy-3a,4,13,13a-tetrahydrodibenzo [4,5:6,7] Cycloocta [1,2-c]Furan-1(3H)-One]	11.3 ± 3.47%	–	–	–	–
COc1ccc(C[C@H]2C(=O)OC[C@@H]2Cc2ccc(O)c(O)c2)cc1OC [Compound 4, (3R,4R)-4-(3,4-Dihydroxybenzyl)-3-(3,4-dimethoxybenzyl)dihydrofuran-2(3H)-one]	15.8 ± 2.15%	–	–	6 µM and 6.04 µM	IC50 [2, 4]: > 10 µM
COc1cc2c(cc1OC)-c1cc(O)c(O)cc1C[C@H]1COC(=O)[C@@H]1C2 [Compound 15, (3aR,13aR)-6,7-Dihydroxy-10,11-dimethoxy-3a,4,13,13a-tetrahydro Dibenzo [4,5:6,7]Cycloocta [1,2-c]Furan-1(3H)-one]	15.6 ± 5.66%	–	–	–	–
COc1ccc(C[C@H]2COC[C@@H]2Cc2ccc(OC)c(OC)c2)cc1OC [Compound 10, (3R,4R)-3,4-Bis(3,4-dimethoxybenzyl)tetrahydrofuran]	3.91 ± 1.55%	–	–	–	–
COc1ccc(C[C@@H](CO)[C@H](CO)Cc2ccc(OC)c(OC)c2)cc1OC [Compound 8, (2R,3R)-2,3-Bis(3,4-dimethoxybenzyl)butane-1,4-diol]	9.41 ± 1.88%	reduced cell viability	–	–	–
COc1ccc(C[C@H]2COC[C@@H]2Cc2ccc(O)c(O)c2)cc1OC [Compound 11]	12.1 ± 4.33%	reduced cell viability	weak estrogenic activity	0.5 ± 0.17 µM	IC50 [2, 4]: < 20 µM
COc1ccc(C[C@H]2C(O)OC[C@@H]2Cc2ccc3c(c2)OCO3)cc1OC (mixture of isomers) [Compound 5, (3R,4R)-4-(Benzo[d][1,3]dioxol-5-ylmethyl)-3-(3,4-dimethoxybenzyl) Tetrahydro Furan-2-ol]	22.7 ± 4.26%	–	weak estrogenic activity	3.24 ± 2.03 µM	–
